Experiments:
A2780 ovarian cells [1] = experiment: A2780 ovarian cell proliferation assay in lipid reduced medium, with palmitate (MTT); assay type: cell-based; settings: Homo sapiens, A2780, 96 h; read-out: pIC50 A2780 Ovarian Cell, With Palmitate (converted)
Outline: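 Seeded cells were switched next day to lipid-reduced serum, exposed to compound and 25 μM palmitate complexed with fatty-acid-free BSA, and incubated 96 h. Proliferation was then determined by MTT absorbance at 544 nm, with a best-fit curve of signal against concentration.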

[2] = target: T1, hFASN enzyme (full length) (Homo sapiens, UniProt P49327); experiment: Fatty Acid Synthase (FASN) inhibition scintillation proximity assay; assay type: biochemical; settings: for inhibition at 10 µM: read-out: Human FASN % inhibition @ 10 μM, 10 μM test compound; for IC50: read-out: Human FASN pIC50 (converted)
T1 construct: 10 μL hFASN enzyme (full length, 300 ng, purified in house); made in house
Outline: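 Full-length in-house purified enzyme (300 ng) was tested in 100 mM KH2PO4 pH 7.5, 1 mM DTT with ³H-acetyl-CoA and malonyl-CoA as substrates; compounds ranged 0.01–30 μM. Reactions were stopped with streptavidin imaging beads, read by LEADseeker at 610 nm, and fitted to a 4-parameter logistic curve.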

[3] = system: LNCaP-Vancouver prostate cells; experiment: In vitro LNCaP Vancouver prostate cell proliferation assay in lipid reduced medium; assay type: cell-based; settings: read-out: pIC50 LNCaP_Vancouver prostate cell (converted)
[4] = system: PC-3M-Luc-C6 prostate cells; experiment: In vitro PC-3M-Luc-C6 prostate cell proliferation assay in lipid reduced medium; assay type: cell-based; settings: 96 h, read-out: pIC50 PC-3M-Luc-C6 prostate cell (converted)
[5] = target: Fatty Acid Synthase Keto-reductase Domain (FASN KR) (Homo sapiens, UniProt P49327); experiment: Fatty Acid Synthase keto-reductase domain (FASN KR) inhibition, NADPH oxidation at 340 nm
Experimental: After 20 minutes incubation at room temperature the plate was measured again (T2).
The decrease in absorbance was calculated as (Absorbance before incubation T1)−(Absorbance following incubation T2).
A plot of Controlmin versus test compound concentration was fitted to a 4-parameter logistic curve using a non-linear least squares regression method.

A2780 ovarian cells [6] = experiment: A2780 ovarian cell proliferation assay in lipid reduced medium, without palmitate (MTT); assay type: cell-based; settings: Homo sapiens, A2780, 96 h; read-out: pIC50 A2780 Ovarian Cell, Without Palmitate (converted)

Chain of Fatty Acid Synthase Keto-reductase Domain (FASN KR) (P49327 whole entry, the tested form may be a part): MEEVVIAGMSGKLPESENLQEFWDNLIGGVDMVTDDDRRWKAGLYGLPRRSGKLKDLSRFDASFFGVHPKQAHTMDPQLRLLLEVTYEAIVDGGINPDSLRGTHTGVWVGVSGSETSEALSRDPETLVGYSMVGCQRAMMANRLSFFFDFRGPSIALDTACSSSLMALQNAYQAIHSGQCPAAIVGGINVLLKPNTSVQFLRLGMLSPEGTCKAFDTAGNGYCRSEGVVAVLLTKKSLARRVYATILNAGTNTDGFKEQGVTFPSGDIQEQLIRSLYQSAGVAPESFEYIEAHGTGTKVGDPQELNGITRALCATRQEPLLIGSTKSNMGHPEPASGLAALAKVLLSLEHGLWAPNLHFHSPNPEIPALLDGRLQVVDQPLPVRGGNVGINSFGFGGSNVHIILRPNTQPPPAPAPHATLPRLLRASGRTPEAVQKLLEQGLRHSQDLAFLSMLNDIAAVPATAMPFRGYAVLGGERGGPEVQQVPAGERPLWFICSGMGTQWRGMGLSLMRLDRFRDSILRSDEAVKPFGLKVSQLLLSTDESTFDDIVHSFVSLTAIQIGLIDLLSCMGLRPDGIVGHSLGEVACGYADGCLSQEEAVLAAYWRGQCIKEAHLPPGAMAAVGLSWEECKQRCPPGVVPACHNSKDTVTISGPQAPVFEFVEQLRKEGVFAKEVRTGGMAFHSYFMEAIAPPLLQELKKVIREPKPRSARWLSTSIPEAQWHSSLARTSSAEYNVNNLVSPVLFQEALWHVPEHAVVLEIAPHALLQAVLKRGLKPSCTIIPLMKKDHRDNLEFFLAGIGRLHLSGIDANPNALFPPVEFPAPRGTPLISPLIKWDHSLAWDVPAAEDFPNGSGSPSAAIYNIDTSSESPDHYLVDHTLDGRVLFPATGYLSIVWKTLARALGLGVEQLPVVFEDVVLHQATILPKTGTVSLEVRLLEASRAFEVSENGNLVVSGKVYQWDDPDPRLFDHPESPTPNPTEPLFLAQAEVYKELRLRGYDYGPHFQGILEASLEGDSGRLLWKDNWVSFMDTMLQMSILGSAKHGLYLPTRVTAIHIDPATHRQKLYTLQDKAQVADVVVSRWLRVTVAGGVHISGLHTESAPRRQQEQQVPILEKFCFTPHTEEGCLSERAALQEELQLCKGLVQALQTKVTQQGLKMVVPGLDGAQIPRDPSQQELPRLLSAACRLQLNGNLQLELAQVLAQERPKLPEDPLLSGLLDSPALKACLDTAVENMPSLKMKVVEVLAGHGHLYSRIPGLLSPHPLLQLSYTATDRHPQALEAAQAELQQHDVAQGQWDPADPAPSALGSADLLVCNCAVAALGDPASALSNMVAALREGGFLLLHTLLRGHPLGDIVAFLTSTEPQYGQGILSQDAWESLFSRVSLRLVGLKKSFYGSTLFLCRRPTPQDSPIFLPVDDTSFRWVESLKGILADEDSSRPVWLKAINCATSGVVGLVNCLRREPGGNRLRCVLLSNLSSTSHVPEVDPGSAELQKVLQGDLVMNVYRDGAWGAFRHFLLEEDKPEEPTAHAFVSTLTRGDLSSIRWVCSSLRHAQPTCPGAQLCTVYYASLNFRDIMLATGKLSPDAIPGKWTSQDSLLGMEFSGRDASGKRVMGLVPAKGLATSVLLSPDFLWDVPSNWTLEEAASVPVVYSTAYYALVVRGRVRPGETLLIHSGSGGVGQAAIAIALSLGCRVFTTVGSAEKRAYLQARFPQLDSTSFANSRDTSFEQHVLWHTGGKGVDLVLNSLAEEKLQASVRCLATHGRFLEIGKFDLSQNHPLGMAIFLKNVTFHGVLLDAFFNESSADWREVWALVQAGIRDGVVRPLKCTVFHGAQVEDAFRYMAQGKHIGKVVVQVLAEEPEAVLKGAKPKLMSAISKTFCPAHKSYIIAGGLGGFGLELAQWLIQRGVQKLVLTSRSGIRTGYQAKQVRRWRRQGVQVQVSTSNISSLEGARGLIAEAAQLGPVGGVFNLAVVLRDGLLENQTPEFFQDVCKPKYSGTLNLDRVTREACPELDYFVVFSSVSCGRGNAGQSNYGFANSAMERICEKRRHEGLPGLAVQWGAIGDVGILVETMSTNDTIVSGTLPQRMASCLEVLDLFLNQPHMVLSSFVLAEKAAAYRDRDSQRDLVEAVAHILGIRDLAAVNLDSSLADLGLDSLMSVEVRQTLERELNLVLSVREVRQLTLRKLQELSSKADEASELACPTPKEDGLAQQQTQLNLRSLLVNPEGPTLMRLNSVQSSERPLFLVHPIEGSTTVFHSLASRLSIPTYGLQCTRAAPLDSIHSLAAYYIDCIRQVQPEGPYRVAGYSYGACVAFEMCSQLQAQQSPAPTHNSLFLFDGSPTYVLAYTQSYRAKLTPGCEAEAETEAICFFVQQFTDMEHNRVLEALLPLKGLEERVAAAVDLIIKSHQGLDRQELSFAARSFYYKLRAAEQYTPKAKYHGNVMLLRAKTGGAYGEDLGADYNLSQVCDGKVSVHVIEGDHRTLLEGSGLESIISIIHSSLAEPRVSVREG
T1 sequence (P49327 whole entry): as the sequence (P49327 whole entry, the tested form may be a part) above

Row | Compound | IC50 (A2780 ovarian cells [1]) | inhibition at 10 µM [2] | IC50 [2] | IC50 [3] | IC50 [4] | IC50 [5] | IC50 (A2780 ovarian cells [6])
1 | COc1ccc2cc(-c3ccc(C4=NC5(CC5)C(=O)N4C[C@@H]4CCN(C(=O)C5(O)CC5)C4)cc3)ccc2c1 [compound 203, (R)-6-((1-(1-hydroxycyclopropanecarbonyl)pyrrolidin-3-yl)methyl)-5-(4-(6-methoxynaphthalen-2-yl)phenyl)-4,6-diazaspiro[2.4]hept-4-en-7-one] | > 10000 nM | 99% | 57.5 nM | 21.4 nM | 5.62 nM | 46.8 nM | ~4.57 nM
2 | O=C(C1CC1)N1CC[C@@H](CN2C(=O)C3(CC3)N=C2c2ccc(-c3nc4ccccc4o3)cc2F)C1 [compound 251, (R)-5-(4-(benzo[d]oxazol-2-yl)-2-fluorophenyl)-6-((1-(cyclopropanecarbonyl)pyrrolidin-3-yl)methyl)-4,6-diazaspiro[2.4]hept-4-en-7-one] | > 10000 nM | 101% | 32.4 nM | 138 nM | ~41.7 nM | 42.7 nM | 72.4 nM
3 | Cc1cc2cc(-c3ccc(C4=NC5(CC5)C(=O)N4CC4CN(C(=O)C5(C)CC5)C4)c(F)c3)ccc2s1 [compound 352, 5-(2-fluoro-4-(2-methylbenzo[b]thiophen-5-yl)phenyl)-6-((1-(1-methylcyclopropanecarbonyl)azetidin-3-yl)methyl)-4,6-diazaspiro[2.4]hept-4-en-7-one] | 3020 nM | 94% | 74.1 nM | 562 nM | 162 nM | 93.3 nM | ~123 nM
4 | Cn1cc(-c2ccc(-c3ccc(C4=NC5(CC5)C(=O)N4C[C@H]4CCN(C(=O)C5CC5)C4)cc3)cc2)cn1 [compound 411, 6-{[(3S)-1-(Cyclopropylcarbonyl)pyrrolidin-3-yl]methyl}-5-[4′-(1-methyl-1H-pyrazol-4-yl)biphenyl-4-yl]-4,6-diazaspiro[2.4]hept-4-en-7-one] | > 10000 nM | 100% | 158 nM | 525 nM | 162 nM | 427 nM | 126 nM
5 | N#CCc1c[nH]c2ccc(-c3ccc(C4=NC5(CC5)C(=O)N4C[C@@H]4CCN(C(=O)C5CC5)C4)cc3)cc12 [compound 212, (R)-2-(5-(4-(6-((1-(cyclopropanecarbonyl)pyrrolidin-3-yl)methyl)-7-oxo-4,6-diazaspiro[2.4]hept-4-en-5-yl)phenyl)-1H-indole-3-yl)acetonitrile] | > 10000 nM | 101% | 28.2 nM | 110 nM | 18.2 nM | 37.2 nM | 7.24 nM
6 | Cc1cc(-c2ccc3sc(C)c(C)c3c2)ccc1C1=NC2(CC2)C(=O)N1CC1CN(C(=O)C2CC2)C1 [compound 290, 6-((1-(cyclopropanecarbonyl)azetidin-3-yl)methyl)-5-(4-(2,3-dimethylbenzo[b]thiophen-5-yl)-2-methylphenyl)-4,6-diazaspiro[2.4]hept-4-en-7-one] | > 10000 nM | 110% | 79.4 nM | ~2140 nM | ~1170 nM | 331 nM | ~1950 nM
7 | Cn1nccc1-c1ccc(-c2ccc(C3=NC4(CC4)C(=O)N3C[C@@H]3CCN(C(=O)C4(O)CC4)C3)c(F)c2)cc1 [compound 371, (R)-5-(3-fluoro-4′-(1-methyl-1H-pyrazol-5-yl)-[1,1′-biphenyl]-4-yl)-6-((1-(1-hydroxycyclopropanecarbonyl)pyrrolidin-3-yl)methyl)-4,6-diazaspiro[2.4]hept-4-en-7-one] | 8130 nM | 101% | 56.2 nM | 490 nM | 55 nM | 129 nM | 72.4 nM

Next, values leading:

Row | IC50 (A2780 ovarian cells [1]) | inhibition at 10 µM [2] | IC50 [2] | IC50 [3] | IC50 [4] | IC50 [5] | IC50 (A2780 ovarian cells [6]) | Compound
8 | > 10000 nM | 93% | 331 nM | 2880 nM | 776 nM | 977 nM | 759 nM | O=C(C1CC1)N1CC[C@@H](CN2C(=O)C3(CC3)N=C2c2ccc(-c3ccc4c(=O)[nH]ccc4c3)cc2)C1 [compound 467, 6-[4-(6-{[(3R)-1-(Cyclopropylcarbonyl)pyrrolidin-3-yl]methyl}-7-oxo-4,6-diazaspiro[2.4]hept-4-en-5-yl)phenyl]isoquinolin-1(2H)-one]
9 | > 10000 nM | 98% | 166 nM | 1260 nM | 158 nM | 427 nM | ~209 nM | Cn1nc(C#N)c2ccc(-c3ccc(C4=NC5(CC5)C(=O)N4C[C@@H]4CCN(C(=O)C5CC5)C4)cc3)cc21 [compound 493, 6-[4-(6-{[(3R)-1-(Cyclopropylcarbonyl)pyrrolidin-3-yl]methyl}-7-oxo-4,6-diazaspiro[2.4]hept-4-en-5-yl)phenyl]-1-methyl-1H-indazole-3-carbonitrile]
10 | > 10000 nM | 93% | 224 nM | 7240 nM | 1910 nM | 977 nM | ~3800 nM | N#Cc1cc2cc(-c3ccc(C4=NC5(CC5)C(=O)N4C[C@@H]4CCN(C(=O)C5CC5)C4)cc3F)ccc2o1 [compound 463, 5-[4-(6-{[(3R)-1-(Cyclopropylcarbonyl)pyrrolidin-3-yl]methyl}-7-oxo-4,6-diazaspiro[2.4]hept-4-en-5-yl)-2-fluorophenyl]-1-benzofuran-2-carbonitrile]
11 | > 10000 nM | 95% | 309 nM | 8710 nM | 1450 nM | 813 nM | 1290 nM | COC(=O)N1CC2(C1)N=C(c1ccc(-c3ccc4cccnc4c3)cc1)N(C[C@@H]1CCN(C(=O)C(C)O)C1)C2=O (stereo partly drawn) [compound 729, Methyl 7-{[(3R)-1-(2-hydroxypropanoyl)pyrrolidin-3-yl]methyl}-8-oxo-6-(4-quinolin-7-ylphenyl)-2,5,7-triazaspiro[3.4]oct-5-ene-2-carboxylate]
12 | > 10000 nM | 100% | 288 nM | 3020 nM | ~1820 nM | 741 nM | ~2140 nM | Cc1cc(-c2ccc3c(c2)CCO3)ccc1C1=NC2(CCCC2)C(=O)N1C[C@@H]1CCN(C(=O)C2CC2)C1 [compound 884, (R)-3-((1-(cyclopropanecarbonyl)pyrrolidin-3-yl)methyl)-2-(4-(2,3-dihydrobenzofuran-5-yl)-2-methylphenyl)-1,3-diazaspiro[4.4]non-1-en-4-one]
13 | ~10000 nM | 84% | 1120 nM | > 10000 nM | 4170 nM | 8710 nM | 2340 nM | Cc1cc(-c2ccc3ccc(C#N)nc3c2)ccc1C1=NC2(CC2)C(=O)N1CC1CN(C(=O)C2(C)CC2)C1 [compound 604, 7-{3-Methyl-4-[6-({1-[(1-methylcyclopropyl)carbonyl]azetidin-3-yl}methyl)-7-oxo-4,6-diazaspiro[2.4]hept-4-en-5-yl]phenyl}quinoine-2-carbonitrile]
14 | > 10000 nM | 99% | 355 nM | 3020 nM | 575 nM | 525 nM | ~224 nM | COCCN1CCC2(CC1)N=C(c1ccc(-c3ccc4[nH]ncc4c3)cc1)N(C[C@@H]1CCN(C(=O)C3CC3)C1)C2=O [compound 748, 3-{[(3R)-1-(Cyclopropylcarbonyl)pyrrolidin-3-yl]methyl}-2-[4-(1H-indazxol-5-yl)phenyl]-8-(2-methoxyethyl)-1,3,8-trisazaspiro[4.5]dec-1-en-4-one]
15 | > 10000 nM | 97% | 229 nM | 2040 nM | 550 nM | 525 nM | 631 nM | Nc1cc(-c2ccc(C3=NC4(CC4)C(=O)N3C[C@@H]3CCN(C(=O)C4CC4)C3)cc2)ccn1 [compound 452, 5-[4-(2-Aminppyridin-4-yl)phenyl]-6-{[(3R)-1-(cyclopropylcarbonyl)pyrrolidin-3-yl]methyl}-4,6-diazaspiro[2.4]hept-4-en-7-one]
16 | > 10000 nM | 89% | 692 nM | 3020 nM | 4470 nM | 1620 nM | 832 nM | Cn1ccc(-c2ccc(-c3ccc(C4=NC5(CC5)C(=O)N4CC4CN(C(=O)C5CC5)C4)cc3)cc2)n1 [compound 542, 6-{[1-(Cyclopropylcarbonyl)azetidin-3-yl]methyl}-5-[4′-(1-methyl-1H-pyrazol-3-yl)biphenyl-4-yl]-4,6-diazaspiro[2.4]hept-4-en-7-one]
17 | > 10000 nM | 96% | 115 nM | 1000 nM | 219 nM | 182 nM | 117 nM | O=C([C@H]1CCCO1)N1CC[C@@H](CN2C(=O)C3(CCOC3)N=C2c2ccc(-c3ccc4cccnc4c3)cc2)C1 (stereo partly drawn) [compound 682, 2-(4-Quinolin-7-ylphenyl)-3-({(3R)-1-[(2R)-tetrahydro-furan-2-ylcarbonyl]pyrrolidin-3-yl}methyl)-7-oxa-1,3-diazaspiro[4.4]non-1-en-4-one]

— patent US10077261B2, “Imidazolin-5-one derivative useful as FASN inhibitors for the treatment of cancer” (Janssen Pharmaceutica NV, priority 2012, dated 2018)
